Patent publication US20110105623A1 (Biogenic Innovations, LLC, priority 2009, published 2011)
Where “and” joins values, the source holds several entries; their conditions need not be identical. Equal entries are not always repeated. Where two headings read alike, the source gives them in different places.

Tests used:
[1] = system: Rhinovirus type 14 (ATCC #VR-284); format: cell-based
Salmonella typhimurium = assay: USP AET, MSM in TSB; format: cell-based; parameters: key: Colonies too numerous to count (TNTC); conditions: 48 hrs
Bacillus coagulans = assay: Colony formation, population weight and percent transmittance with MSM; format: cell-based; conditions: 546 nm, 25x25 mm agar section, 1.0, 2.5, 5.0% MSM
Description: The microorganisms were grown for 72 hours in 30 milliliters of tryptic soy broth. At the end of the 72 hours, the broth was measured for colony formation, with photographic documentation of colony formation on tryptic soy agar. Percent transmittance was also measured on a 25 mm×25 mm area of the tryptic soy agar placed between two microscope slides in a spectrophotometer.
For the Bacillus coagulans, the organism was isolated and grown for 24 hours before harvesting. The harvested microorganism was placed into a sterile 100 mL bottle called dilution A. Dilution A was further diluted into one working solution, with a count of 210 Bacillus coagulans per 1 mL, called dilution B. One milliliter of Dilution B was used to inoculate the 30 mL of TSB concentrations stated above.
Each dilution for the microorganism was plated in triplicate for each sample. To capture the appropriate colonies per milliliter, the microorganism was plated at six different dilutions.
The population count was based on the dilution of the tryptic soy broth after 72 hours and inoculation on to tryptic soy agar plates. The plates were incubated for 48 hours and enumerated.
The tryptic soy broth after 72 hours was centrifuged down in a conical vial. The supernatant was pulled off and the pellet was washed. The centrifuging and washing was repeated three times. […] Each vial was weighed empty and recorded. […]

E. coli = assay: Log growth in MSM-lactose broth with or without DMSO; format: cell-based, Escherichia coli; conditions: 24 hours
Description: Lactose broth, free of both NaCl and of proteins, was used as the media in this experiment. […] Each media composition was initially inoculated with 6.75×10^6 cfu/mL of E. coli. Cultures were incubated at 25° C. for seven days. Aliquots of each culture were taken after 24 hours of culturing and at the end of seven days in culture. Aliquots were serially diluted (with Modified Letheen diluent) and plated on trypto-soy agar plates.

[2] = system: Bifidobacterium bifidum ATCC #29521; assay: Growth in MRS broth + L-cysteine fortified with MSM

Methylsulfonylmethane [MSM]
Average Log Stimulation [1]: 0.053log10 and 0.11log10 | Average Percent Stimulation [1]: 11.49% and 22.38% | Average TCID50 [1]: 4.42log10 and 5.00log10 and 5.58log10 and 5.42log10 and 5.67log10 and 5.25log10 | Log Stimulation [1]: 0.08log10 and 0.00log10 and 0.17log10 | TCID50 [1]: 4.25log10 and 4.50log10 and 4.75log10 and 5.00log10 and 5.25log10 and 5.50log10 and 6.00log10 and 5.75log10 | average log10 reduction ([1]; 1% MSM): 0.14 log10 | average percent reduction ([1]; 1% MSM): 27.56% | average log10 reduction ([1]; 2% MSM): 0.42 log10 | average percent reduction ([1]; 2% MSM): 61.98% | average log10 reduction ([1]; 3% MSM): 0.11 log10 | average percent reduction ([1]; 3% MSM): 22.38% | average log10 reduction ([1]; 4% MSM): 0.28 log10 | average percent reduction ([1]; 4% MSM): 47.52% | HillSlope, best-fit value ([1]; log(inhibitor) vs. normalized response, variable slope): 0.6280 | LogIC50, best-fit value ([1]; log(inhibitor) vs. normalized response, variable slope, dose in mM): 1.582 | AET microorganism count (Salmonella typhimurium; 1:100 dilution of MSM): TNTC | AET microorganism count (Salmonella typhimurium; 1:1000 dilution of MSM): TNTC | Percent Transmittance (Bacillus coagulans; 1.0% MSM): 51.5% | Percent Transmittance (Bacillus coagulans; 5.0% MSM): 45.6% | reduced bacterial growth (E. coli; 11% MSM): about 2.2 logs | reduced bacterial growth (E. coli; 16% MSM): about 1 log | Log Growth of Bifidobacteruim bifidum in Media Fortified with MSM ([2]; 0.125% MSM, Hr 0): 1.12 logs | Log Growth of Bifidobacteruim bifidum in Media Fortified with MSM ([2]; 0.125% MSM, Hr 8): 2.89 logs | Log Growth of Bifidobacteruim bifidum in Media Fortified with MSM ([2]; 0.125% MSM, Hr 16): 7.85 logs | Log Growth of Bifidobacteruim bifidum in Media Fortified with MSM ([2]; 0.125% MSM, Hr 24): 9.06 logs | Log Growth of Bifidobacteruim bifidum in Media Fortified with MSM ([2]; 0.125% MSM, Hr 32): 11.45 logs | Log Growth of Bifidobacteruim bifidum in Media Fortified with MSM ([2]; 0.125% MSM, Hr 40): 10.80 logs | Log Growth of Bifidobacteruim bifidum in Media Fortified with MSM ([2]; 0.125% MSM, Hr 48): 8.22 logs | Log Growth of Bifidobacteruim bifidum in Media Fortified with MSM ([2]; 0.125% MSM, Hr 56): 7.25 logs | Log Growth of Bifidobacteruim bifidum in Media Fortified with MSM ([2]; 0.125% MSM, Hr 64): 8.86 logs | Log Growth of Bifidobacteruim bifidum in Media Fortified with MSM ([2]; 0.125% MSM, Hr 72): 6.59 logs | Log Growth of Bifidobacteruim bifidum in Media Fortified with MSM ([2]; 0.125% MSM, Hr 80): 9.12 logs | Log Growth of Bifidobacteruim bifidum in Media Fortified with MSM ([2]; 0.125% MSM, Hr 88): 9.12 logs | Log Growth of Bifidobacteruim bifidum in Media Fortified with MSM ([2]; 0.125% MSM, Hr 96): <6.00 logs | Log Growth of Bifidobacteruim bifidum in Media Fortified with MSM ([2]; 0.5% MSM, Hr 0): 1.00 logs | Log Growth of Bifidobacteruim bifidum in Media Fortified with MSM ([2]; 0.5% MSM, Hr 8): 2.84 logs | Log Growth of Bifidobacteruim bifidum in Media Fortified with MSM ([2]; 0.5% MSM, Hr 16): 7.45 logs | Log Growth of Bifidobacteruim bifidum in Media Fortified with MSM ([2]; 0.5% MSM, Hr 24): 8.81 logs | Log Growth of Bifidobacteruim bifidum in Media Fortified with MSM ([2]; 0.5% MSM, Hr 32): 11.22 logs | Log Growth of Bifidobacteruim bifidum in Media Fortified with MSM ([2]; 0.5% MSM, Hr 40): 12.09 logs | Log Growth of Bifidobacteruim bifidum in Media Fortified with MSM ([2]; 0.5% MSM, Hr 48): 9.39 logs | Log Growth of Bifidobacteruim bifidum in Media Fortified with MSM ([2]; 0.5% MSM, Hr 56): 9.51 logs | Log Growth of Bifidobacteruim bifidum in Media Fortified with MSM ([2]; 0.5% MSM, Hr 64): 10.34 logs | Log Growth of Bifidobacteruim bifidum in Media Fortified with MSM ([2]; 0.5% MSM, Hr 72): 8.35 logs | Log Growth of Bifidobacteruim bifidum in Media Fortified with MSM ([2]; 0.5% MSM, Hr 80): 10.38 logs | Log Growth of Bifidobacteruim bifidum in Media Fortified with MSM ([2]; 0.5% MSM, Hr 88): 9.70 logs | Log Growth of Bifidobacteruim bifidum in Media Fortified with MSM ([2]; 0.5% MSM, Hr 96): 8.82 logs | log growth ([2]; 0.5% MSM, hour 96): 8.82 logs | log growth (estimated, outside the countable range) ([2]; 1% MSM, Hour 96): less than 6 logs | Log Growth of Bifidobacteruim bifidum in Media Fortified with MSM ([2]; 1% MSM, Hr 0): 1.00 logs | Log Growth of Bifidobacteruim bifidum in Media Fortified with MSM ([2]; 1% MSM, Hr 8): 2.73 logs | Log Growth of Bifidobacteruim bifidum in Media Fortified with MSM ([2]; 1% MSM, Hr 16): 7.73 logs | Log Growth of Bifidobacteruim bifidum in Media Fortified with MSM ([2]; 1% MSM, Hr 24): 8.81 logs | Log Growth of Bifidobacteruim bifidum in Media Fortified with MSM ([2]; 1% MSM, Hr 32): 11.49 logs | Log Growth of Bifidobacteruim bifidum in Media Fortified with MSM ([2]; 1% MSM, Hr 40): 11.19 logs | Log Growth of Bifidobacteruim bifidum in Media Fortified with MSM ([2]; 1% MSM, Hr 48): 10.43 logs | Log Growth of Bifidobacteruim bifidum in Media Fortified with MSM ([2]; 1% MSM, Hr 56): 10.57 logs | Log Growth of Bifidobacteruim bifidum in Media Fortified with MSM ([2]; 1% MSM, Hr 64): 10.66 logs | Log Growth of Bifidobacteruim bifidum in Media Fortified with MSM ([2]; 1% MSM, Hr 72): 8.34 logs | Log Growth of Bifidobacteruim bifidum in Media Fortified with MSM ([2]; 1% MSM, Hr 80): 9.43 logs | Log Growth of Bifidobacteruim bifidum in Media Fortified with MSM ([2]; 1% MSM, Hr 88): 10.41 logs | Log Growth of Bifidobacteruim bifidum in Media Fortified with MSM ([2]; 1% MSM, Hr 96): <6.00 logs | Log Growth of Bifidobacteruim bifidum in Media Fortified with MSM ([2]; 5% MSM, Hr 0): 1.12 logs | Log Growth of Bifidobacteruim bifidum in Media Fortified with MSM ([2]; 5% MSM, Hr 8): 2.04 logs | Log Growth of Bifidobacteruim bifidum in Media Fortified with MSM ([2]; 5% MSM, Hr 16): 6.10 logs | Log Growth of Bifidobacteruim bifidum in Media Fortified with MSM ([2]; 5% MSM, Hr 24): 8.43 logs | Log Growth of Bifidobacteruim bifidum in Media Fortified with MSM ([2]; 5% MSM, Hr 32): 11.13 logs | Log Growth of Bifidobacteruim bifidum in Media Fortified with MSM ([2]; 5% MSM, Hr 40): 11.78 logs | Log Growth of Bifidobacteruim bifidum in Media Fortified with MSM ([2]; 5% MSM, Hr 48): 10.70 logs | Log Growth of Bifidobacteruim bifidum in Media Fortified with MSM ([2]; 5% MSM, Hr 56): 10.59 logs | Log Growth of Bifidobacteruim bifidum in Media Fortified with MSM ([2]; 5% MSM, Hr 64): 14.32 logs | Log Growth of Bifidobacteruim bifidum in Media Fortified with MSM ([2]; 5% MSM, Hr 72): 8.65 logs | Log Growth of Bifidobacteruim bifidum in Media Fortified with MSM ([2]; 5% MSM, Hr 80): 12.20 logs | Log Growth of Bifidobacteruim bifidum in Media Fortified with MSM ([2]; 5% MSM, Hr 88): 12.31 logs | Log Growth of Bifidobacteruim bifidum in Media Fortified with MSM ([2]; 5% MSM, Hr 96): 9.60 logs | Log Growth of Bifidobacteruim bifidum in Media Fortified with MSM ([2]; […] MSM, Hr 96): <6.00 logs | maximum reached before the control ([2]; all MSM concentrations): 16 h
